Consider 66 molecules from PubChem BioAssay AID1421 (Emory University Molecular Libraries Screening Center, 2008).

The structures appear in SMILES notation. Calls of active or inactive are those of the source. How the calls were made is not given here.

For one assay, the target named is Prostaglandin E2 receptor EP2 subtype (Homo sapiens) (UniProt P43116). Briefly: compounds shifting PGE2 potency at EP2 – cell-based, human EP2, PGE2 EC50 shift, dose response (AID 1421). To be noted: EP2-expressing cells, PGE2 EC50 shift by compound.
Sequence of Prostaglandin E2 receptor EP2 subtype (Homo sapiens) (P43116 whole entry, looked up): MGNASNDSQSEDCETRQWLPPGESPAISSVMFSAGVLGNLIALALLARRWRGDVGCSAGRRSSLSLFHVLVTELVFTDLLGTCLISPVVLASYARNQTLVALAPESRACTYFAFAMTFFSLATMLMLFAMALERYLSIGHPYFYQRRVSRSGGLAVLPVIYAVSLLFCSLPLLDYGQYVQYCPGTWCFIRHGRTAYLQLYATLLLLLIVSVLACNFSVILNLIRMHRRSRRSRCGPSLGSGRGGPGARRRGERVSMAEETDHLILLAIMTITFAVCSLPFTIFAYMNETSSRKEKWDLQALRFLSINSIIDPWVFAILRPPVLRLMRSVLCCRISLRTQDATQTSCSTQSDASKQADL
As for `CC(C)OC(=O)c1c(NC(=O)c2cccs2)sc2c1CCCC2`, the outcome was active.
As for `Cc1sc(NC(=O)c2ccccc2F)c(CN2CCCCC2)c1C`, the outcome was active.
For the molecule `COc1ccccc1NC(=O)c1c(C)oc2c1CCCC2`, the result was active.
The same measure, in the same setting: the result for `CC(C)Sc1cc(N2CCOCC2)nc(-c2ccccc2)n1` reads “active”; that for `O=C1CCC(c2ccccc2)=NN1Cc1c(F)cccc1Cl`, “active”.

Staying with this assay, now noted: EP2-expressing cells, PGE2 EC50 shift by compound; measured here: PGE2 EC50 at 6.7 uM compound.
Turning to `CN(CC(=O)Nc1ccccc1-c1ccccc1)C1CCCCC1`, the PGE2 EC50 with compound worked out at 0.51 nM.
The same measure, in the same setting: the result for `c1ccc(Cc2nnc(Sc3ccccc3)c3ccccc23)cc1` reads 2.76 nM; that for `c1ccc(Nc2nc(N3CCNCC3)nc(N3CCOCC3)n2)cc1`, 1.46 nM.
Take `CCOc1ccc(N(Cc2ccc(OC)cc2)C(=O)c2ccco2)cc1`: the PGE2 EC50 with compound was determined as 1.12 nM.
Turning to `CCCCc1nc2sc3c(SCC(=O)NCc4ccco4)ncnc3c2c2c1CCC2`, the PGE2 EC50 with compound came to 2.5 nM.
Still for that read-out and setting: the result for `Cc1cc(O)c(C=O)c2c1C(=O)Oc1c(COC(=O)/C=C/C(=O)O)c(O)c(C(=O)O)c(C)c1O2` reads 0.54 nM.
The same measure, in the same setting: next, `COc1ccc(S(=O)(=O)N(Cc2ccccc2)Cc2nc(-c3ccccc3)no2)cc1`: 1.16 nM; `CCOc1ccccc1COC(=O)c1cccc(-n2cnnn2)c1`: 1.06 nM.
On the same count and under the same terms, the result for `COc1ccc(OCC(=O)NC(=S)Nc2ccc3c4c(cccc24)CC3)cc1` reads 2.85 nM; that for `CCCCCCn1c(COc2ccccc2F)nnc1SCC(=O)N1c2ccccc2NC(=O)C1(C)C`, 0.93 nM.
Consider `Cc1cc(O)c(C=O)c2c1C(=O)Oc1c(C)c(O)c3c(c1O2)C(O)OC3=O` (stereo unspecified), for which the PGE2 EC50 with compound was 0.76 nM.
Regarding `Cc1scc(-c2n[nH]c(=S)n2Cc2ccccc2)c1C`, the PGE2 EC50 with compound worked out at 2.55 nM.
Take `COc1ccc2c(c1)C(C)=CC(C)(C)N2S(=O)(=O)c1ccc(Br)cc1`: the PGE2 EC50 with compound turned out to be 0.98 nM.
Consider `CCCC(=O)N1CCCC(c2nc(-c3cccs3)no2)C1` (stereo unspecified), for which the PGE2 EC50 with compound was 1.2 nM.
For `Cc1ccc2nc(-c3ccccn3)c(Nc3ccccc3C)n2c1`, the PGE2 EC50 with compound was determined as 0.79 nM.
Same read-out and setting: next, `CC(C)OC(=O)c1c(NC(=O)c2cccs2)sc2c1CCCC2`: 1.01 nM; `O=C(CSCc1c(Cl)cccc1Cl)Nc1ccccc1-c1ccccc1`: 1.36 nM; `COc1ccc(-c2c3c([nH]c(=S)c2C#N)CCC3)cc1`: 2.78 nM.
The same measure, in the same setting: the result for `CCOc1nc(-c2ccccc2O)nc2ccccc12` reads 1.1 nM; that for `C1=C(c2ccccc2)Nc2ccccc2N=C1c1ccccc1`, 2.46 nM.
Still for that read-out and setting: the result for `CCC(=O)N1CCN(c2nc(-c3ccccc3)c3c(c2C#N)CCCC3)CC1` reads 0.91 nM.
With `CCOC(=O)N1CCC(=C2c3ccc(Cl)cc3CCc3cccnc32)CC1`, the PGE2 EC50 with compound worked out at 0.95 nM.
The same measure, in the same setting: the result for `Cc1cccnc1N(C(=O)Nc1cccc(Cl)c1)C1=NCC(C)(C)S1` reads 1.22 nM.
For the molecule `COCC(=O)N(C)c1nnc(-c2cnc(C)cn2)s1`, the PGE2 EC50 with compound came to 1.36 nM.
Still for that read-out and setting: next, `CSc1nc(-c2ccc(Cl)cc2)nn1S(=O)(=O)c1ccccc1`: 1.03 nM.
On the same count and under the same terms, the result for `Cc1sc(NC(=O)c2ccccc2F)c(CN2CCCCC2)c1C` reads 1.09 nM; that for `c1ccn(-c2ncnc3sc4c(c23)CCCC4)c1`, 1.45 nM.
Still for that read-out and setting: next, `Cc1cccnc1N(C(=O)Nc1ccccc1)C1=NCC(C)(C)S1`: 0.57 nM; `O=C(COc1ccccc1)Nc1ccccc1N1CCN(c2ccccc2)CC1`: 1.48 nM; `CCOc1ccc(NC(=O)CSc2ncnc3c2sc2ccccc23)cc1`: 2.67 nM.
`COc1ccc(OC)c(C(=O)c2coc3ccc(OCC(=O)O)cc23)c1`: the PGE2 EC50 with compound worked out at 0.98 nM.
For the molecule `S=c1nc[nH]c2c1[nH]c1ccccc12`, the PGE2 EC50 with compound turned out to be 1.29 nM.
Still for that read-out and setting: the result for `C#CCn1c(S(=O)(=O)Cc2ccccc2Cl)nc(-c2ccccc2)c1-c1ccccc1` reads 2.66 nM; that for `Cc1ccc(CN2C(=O)/C(=C\c3ccc(C(=O)NCc4cccnc4)cc3)Oc3ccccc32)cc1`, 0.95 nM; that for `COc1ccc(-n2c(=S)[nH]c3c(oc4ccccc43)c2=O)cc1`, 2.8 nM.
With `COc1ccccc1NC(=O)c1c(C)oc2c1CCCC2`, the PGE2 EC50 with compound was determined as 1.19 nM.
Regarding `CCCCc1nc(SCCOC)c2c(=O)n(C)c(=O)n(C)c2n1`, the PGE2 EC50 with compound worked out at 1.42 nM.
Still for that read-out and setting: next, `CC(C)Sc1cc(N2CCOCC2)nc(-c2ccccc2)n1`: 1.22 nM.
Still for that read-out and setting: the result for `CC1=CC(C)(C)N(S(=O)(=O)c2ccc(C)cc2)c2cc(C)ccc21` reads 1.17 nM.
On the same count and under the same terms, next, `O=C(CSc1nc2ccccc2o1)Nc1cc(C(F)(F)F)ccc1N1CCOCC1`: 0.77 nM; `Cc1nc2c(-c3ccccc3)c(C)nn2c(C)c1CCC(=O)N1CCOCC1`: 1.09 nM; `CCOC(=O)c1c(C=O)c(C)n(Cc2ccc(C)cc2)c1C`: 1.31 nM.
Take `O=c1c2ccccc2c(-c2ccc(Br)cc2)nn1Cc1ccccc1`: the PGE2 EC50 with compound came out at 0.78 nM.
As to `Cc1ccc(Nc2cc(C)nc3c(C)ccc([N+](=O)[O-])c23)cc1`, the PGE2 EC50 with compound stood at 0.73 nM.
Same read-out and setting: the result for `CCc1cc2cc3c(cc2nc1SCC(=O)OC(C)C)OCO3` reads 0.7 nM; that for `O=c1cc2c(nn1Cc1c(Cl)cccc1Cl)-c1ccccc1CC2`, 0.79 nM.
For `COc1cc(/C=C2\SC(=S)N(Nc3ncc(C(F)(F)F)cc3Cl)C2=O)ccc1O`, the PGE2 EC50 with compound turned out to be 1.36 nM.
Same read-out and setting: the result for `CCOC(=O)c1c(C=O)c(C)n(Cc2ccccc2Cl)c1C` reads 1.34 nM.
As for `C=CCc1cccc(/C=N/c2nc3ccccc3n2CC)c1O`, the PGE2 EC50 with compound was determined as 0.63 nM.
Same read-out and setting: next, `Cc1cc(SCC(=O)NCCC2=CCCCC2)nc2ccccc12`: 2.66 nM; `CCCC(=O)O[C@H]1C[C@@H](C)N(C(=O)c2ccccc2)c2ccc(C)cc21`: 0.88 nM; `Nc1ccc(Cl)cc1C(=O)c1ccccc1Cl`: 1.16 nM.
Same read-out and setting: the result for `Cc1cc(NC(=O)c2cc(-c3ccncc3)nc3c(C)cccc23)no1` reads 1.16 nM.
Still for that read-out and setting: next, `N#Cc1c(NC(=O)CSc2n[nH]c(Cc3ccccc3)n2)oc(-c2ccccc2)c1-c1ccccc1`: 1.4 nM.
As to `CC[C@@H]1Cc2cc(O)ccc2C2=C1c1ccc(O)cc1C[C@H]2CC`, the PGE2 EC50 with compound turned out to be 0.3 nM.
On the same count and under the same terms, next, `O=C(/C(=C/O)N=Nc1ccccc1Cl)c1ccccc1`: 2.68 nM.
On the same count and under the same terms, the result for `CCOC(=O)c1cnc2c(c(C)nn2C)c1Oc1ccc(Cl)cc1` reads 1.29 nM; that for `c1ccc2c(-c3nc(C4CCCCC4)no3)cc(-c3ccncc3)nc2c1`, 0.34 nM.
Still for that read-out and setting: next, `Cc1cccc(/C=C/c2nc3ccccc3c(=O)n2Cc2ccccc2)c1`: 2.67 nM; `CCOP(=O)(OCC)c1nc(-c2cccc3ccccc23)oc1NCCc1ccc(OC)cc1`: 0.96 nM; `CSc1nnc2c3ccccc3c3ccccc3c2n1`: 1 nM.
`COCC(=O)Nc1sc2c(c1C(=O)OC)CCC(C)C2` (stereo unspecified): the PGE2 EC50 with compound amounted to 1.32 nM.
`O=C1N2c3ccccc3CCc3cccc(c32)C1(O)C(F)(F)F` (stereo unspecified): the PGE2 EC50 with compound worked out at 0.81 nM.
On to `O=C1CCC(c2ccccc2)=NN1Cc1c(F)cccc1Cl`, for which the PGE2 EC50 with compound stood at 0.9 nM.
For the molecule `CCCOP(=O)(OCCC)C(Nc1cccc(C(F)(F)F)c1)c1ccc(C)cc1` (stereo unspecified), the PGE2 EC50 with compound amounted to 1.37 nM.
On the same count and under the same terms, next, `O=C(CSc1nc2cc(Cl)ccc2s1)N1CCCc2ccccc21`: 1.09 nM.
